Measurements as given in patent US12187709B2 (Genentech, Inc., priority 2021, dated 2025).

How the values were obtained:
Cbl-b = Cbl-b (Homo sapiens (Human), UniProt Q13191); assay: Cbl-b LCK Ub TR-FRET assay (Cbl-b Lck HTRF); type: biochemical; conditions: for IC50: Cbl-b LCK Ub TR-FRET; for fold-selectivity (Cbl-b over C-cbl): ratio C-cbl Lck HTRF IC50 / Cbl-b Lck HTRF IC50
Outline: (§1)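 Detection reagents added, brief spin, 20 min RT. IC50 fit normalized to no-LCK (low) and DMSO (high) controls.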

c-Cbl = c-Cbl (Homo sapiens (Human), UniProt P22681); assay: C-Cbl LCK Ub TR-FRET assay (C-cbl Lck HTRF); type: biochemical
Outline: as §1

[1] = biological target: Human Cbl-b (residues 40-426) (Homo sapiens (Human), UniProt Q13191); assay: Cbl-b SPR assay; type: binding; conditions: for Fold of selectivity: C-cbl SPR Kd vs Cbl-b SPR Kd; for Kd: SPR, 20° C.
Description: (§2) Affinity of binding to Cbl-b and c-Cbl for compounds described herein was assessed by surface plasmon resonance (SPR) according to the following protocol.
(§3) A surface capture range of 1300-1500 RU of protein was used for both isoforms.
(§4) For SPR measurements, 6 concentrations with 2 fold serial dilution were measured with blanks flanking each series for double referencing. […] SPR sensorgrams were recorded in multi-cycle kinetics format, with a contact time of 60 seconds and a flow rate of 40 μl/min, the dissociation time was varied between 120-1200 seconds aiming for 4-5 half-lives of the measured interaction.
(§5) Kinetic and affinity parameters were extracted from the multicycle kinetics data fitting to a 1:1 binding model using the Biacore™ Incyte evaluation software (Cytiva).
(§6) Chaser assay utilize a single cycle kinetics SPR experiment with a contact time of 120 seconds, a flow rate of 50 μl/min and a dissociation time of 450 seconds. Single cycle kinetics titration utilized an initial blank injection and 5 concentrations with 2 fold serial dilution with a maximum concentration of 500 nM, blanked to a preceding 6 point blank single cycle kinetics injection for double referencing.
(§7) The kd is measured independently by determining the percentage unoccupied compound binding site over time by measuring the binding of a chaser compound measured by SPR.
(§8) Chaser binding was measured by a multicycle kinetics SPR experiment using a contact time of 20 seconds, a flow rate of 30 μl/min, and a dissociation time of 120 seconds. […] The % compound bound at a given time was determined by comparison to a single injection of chaser preceding the single cycle kinetics titration defined below. % Compound Bound=(1−(RUT/RUT0))*100
(§9) The % compound bound is plotted against time in seconds and fit to a single exponential, where the exponent represents the kd of the compound-protein complex. The single cycle kinetics experiment of the compound is then fit with a fixed kd determined using the chaser.

c-Cbl (residues 47-435) = c-Cbl (residues 47-435) (Homo sapiens (Human), UniProt P22681); assay: c-Cbl SPR assay; type: binding; conditions: 20° C.
Description: as §2, §3, §4, §5, §6, §7, §8, §9

Sequence of c-Cbl (residues 47-435) (P22681 47-435): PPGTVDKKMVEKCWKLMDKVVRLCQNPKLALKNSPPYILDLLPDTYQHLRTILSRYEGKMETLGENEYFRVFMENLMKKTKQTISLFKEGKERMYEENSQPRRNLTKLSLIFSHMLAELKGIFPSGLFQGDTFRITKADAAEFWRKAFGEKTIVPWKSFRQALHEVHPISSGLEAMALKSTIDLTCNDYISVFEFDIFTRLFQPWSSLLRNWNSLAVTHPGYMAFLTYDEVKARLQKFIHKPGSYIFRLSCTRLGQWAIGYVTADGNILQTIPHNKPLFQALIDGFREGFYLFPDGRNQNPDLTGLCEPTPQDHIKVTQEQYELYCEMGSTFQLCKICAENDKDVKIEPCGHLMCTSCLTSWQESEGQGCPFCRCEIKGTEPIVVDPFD
Sequence of c-Cbl (P22681 47-435): as above
Sequence of Cbl-b (Q13191 40-426): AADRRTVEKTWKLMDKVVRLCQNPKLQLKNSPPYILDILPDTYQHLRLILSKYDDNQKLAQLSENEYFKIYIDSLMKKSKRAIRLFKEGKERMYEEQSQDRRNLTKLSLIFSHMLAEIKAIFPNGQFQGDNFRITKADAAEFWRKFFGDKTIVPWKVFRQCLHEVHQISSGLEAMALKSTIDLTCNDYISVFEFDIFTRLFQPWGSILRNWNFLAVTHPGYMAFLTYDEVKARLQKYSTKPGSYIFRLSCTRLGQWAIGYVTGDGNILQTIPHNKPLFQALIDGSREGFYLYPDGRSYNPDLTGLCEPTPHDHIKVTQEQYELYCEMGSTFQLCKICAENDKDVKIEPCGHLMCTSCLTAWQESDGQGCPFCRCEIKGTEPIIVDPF
Sequence of Human Cbl-b (residues 40-426) (Q13191 40-426): as above

Row | SMILES | IC50 (Cbl-b) | fold-selectivity (Cbl-b over C-cbl) (Cbl-b) | IC50 (c-Cbl) | Fold of selectivity [1] | Kd [1] | Kd (c-Cbl (residues 47-435))
1 | CO[C@H]1C[C@@H]([C@@H](c2cccc(N3Cc4c(cc(CN5CCN(C)C[C@@H]5C(C)C)cc4C(F)(F)F)C3=O)c2)c2nncn2C)C1 (single isomer, unassigned) [Compound 14] | 630 nM | (1.6x) | 1000 nM | 8.8× | 630 nM | 5500 nM
2 | CO[C@H]1C[C@H]([C@@H](c2cccc(N3Cc4c(cc(CN5CCN(C)C[C@@H]5C(C)C)cc4C(F)(F)F)C3=O)c2)c2nncn2C)C1 (single isomer, unassigned) [Compound 15] | 1900 nM | (1.6x) | 4900 nM | 14× | 770 nM | 11000 nM
3 | CC(C)[C@H]1CN(C)CCN1Cc1cc2c(c(C(F)(F)F)c1)CN(c1cccc([C@]3(c4nncn4C)C[C@H](C#N)C3)c1)C2=O (single isomer, unassigned) [Compound 63] | 7.9 nM | (1.8x) | 14.2 nM | 5.1× | 3.7 nM | 19 nM
4 | CC(C)[C@H]1CN(C)CCN1Cc1cc2c(c(C(F)(F)F)c1)CN(c1cccc([C@]3(c4nncn4C)C[C@@H](C#N)C3)c1)C2=O (single isomer, unassigned) [Compound 64] | 24 nM | (2.9x) | 70 nM | 5.1× | 16 nM | 81 nM
5 | C[C@H]1CCCN(Cc2cc3c(c(C(F)(F)F)c2)CN(c2cccc(C4(c5nncn5C)CC5(COC5)C4)c2)C3=O)C1 (single isomer, unassigned) [Compound 66] | 25 nM | (2.5x) | 62.5 nM | 5.0× | 16 nM | 81 nM
6 | CC1=C[C@@](c2cc(NC3CCC3)nc(N3Cc4c(cc(CN5CCN(C)C[C@@H]5C(C)C)cc4C(F)(F)F)C3=O)c2)(c2nncn2C)C1 (single isomer, unassigned) [Compound 71] | 14 nM | (1.2x) | 16.8 nM | 9.1× | 3.7 nM | 34 nM
7 | CC(C)[C@H]1CN(C)CCN1Cc1cc2c(c(C(F)(F)F)c1)CN(c1cc([C@]3(c4nncn4C)C[C@H](C)C3)cc(OC3CCCC3)n1)C2=O (single isomer, unassigned) [Compound 73] | 22 nM | (1.6x) | 35 nM | 3.0× | 1 nM | 3 nM
8 | CC(C)[C@H]1CN(C)CCN1Cc1cc2c(c(C(F)(F)F)c1)CN(c1cc([C@]3(c4nncn4C)C[C@H](C)C3)cc(NC3CCCC3)n1)C2=O (single isomer, unassigned) [Compound 75] | 17 nM | (1.3x) | 22 nM | 7.7× | 31 nM | 230 nM
9 | Cn1cnnc1[C@]1(c2cccc(N3Cc4c(cc(CNC5(C)CCC5)cc4C(F)(F)F)C3=O)c2)CCC(F)(F)C1 (single isomer, unassigned) [Compound 107] | 300 nM | 6.0x | 1800 nM | 6.8× | 250 nM | 1700 nM
10 | Cn1cnnc1[C@@H](c1cccc(N2Cc3c(cc(CNC4(C)CCC4)cc3C(F)(F)F)C2=O)c1)C1CC(=O)C1 (single isomer, unassigned) [Compound 114] | 360 nM | 2.1 x | 770 nM | 2.1× | 290 nM | 610 nM
11 | Cn1cnnc1[C@H](c1cccc(N2Cc3c(cc(CNC4(C)CCC4)cc3C(F)(F)F)C2=O)c1)C1CC(=O)C1 (single isomer, unassigned) [Compound 115] | 10 nM | 2.3x | 23 nM | 5.2× | 1.8 nM | 8.9 nM
12 | CO[C@](c1cccc(N2Cc3c(cc(CNC4(C)CCC4)cc3C(F)(F)F)C2=O)c1)(c1nncn1C)C1CCC1 (single isomer, unassigned) [Compound 119] | 3600 nM | 3.6x | 13000 nM | 3.0× | 780 nM | 2300 nM
13 | Cn1cnnc1[C@H](c1cccc(N2Cc3c(cc(CNC4(C)CCC4)cc3C(F)(F)F)C2=O)c1)C1CC(F)C1 (single isomer, unassigned) [Compound 127] | 410 nM | 4.1x | 2000 nM | 13× | 360 nM | 4800 nM
14 | Cn1cnnc1[C@H](c1cccc(N2Cc3c(cc(CNC4(C)CCC4)cc3C(F)(F)F)C2=O)c1)C1CC(F)C1 (single isomer, unassigned) [Compound 128] | 240 nM | 4.9x | 1300 nM | 13× | 230 nM | 3000 nM
15 | Cn1cnnc1[C@@H](c1cccc(N2Cc3c(cc(CNC4(C)CCC4)cc3C(F)(F)F)C2=O)c1)C1CC(F)C1 (single isomer, unassigned) [Compound 129] | 11 nM | 3.5x | 39 nM | 13× | 3.6 nM | 43 nM
16 | Cn1cnnc1[C@@H](c1cccc(N2Cc3c(cc(CNC4(C)CCC4)cc3C(F)(F)F)C2=O)c1)C1CC(F)C1 (single isomer, unassigned) [Compound 130] | 5.5 nM | 1.0x | 5.7 nM | 5.3× | 0.3 nM | 1.6 nM
17 | COC1CC([C@H](c2cccc(N3Cc4c(cc(CNC5(C)CCC5)cc4C(F)(F)F)C3=O)c2)c2nncn2C)C1 (single isomer, unassigned) [Compound 131] | 740 nM | 7.4x | 5600 nM | 16× | 280 nM | 4500 nM
18 | COC1CC([C@H](c2cccc(N3Cc4c(cc(CNC5(C)CCC5)cc4C(F)(F)F)C3=O)c2)c2nncn2C)C1 (single isomer, unassigned) [Compound 132] | 600 nM | 8.0x | 4800 nM | 15× | 360 nM | 5600 nM
19 | COC1CC([C@@H](c2cccc(N3Cc4c(cc(CNC5(C)CCC5)cc4C(F)(F)F)C3=O)c2)c2nncn2C)C1 (single isomer, unassigned) [Compound 133] | 150 nM | 4.9x | 730 nM | 7.7× | 83 nM | 660 nM
